Columns and labels:
Aspergillus terreus = assay: Expected efficacy of antifungal agents; assay type: cell-based
Aspergillus flavus = assay: Expected efficacy of antifungal agents; assay type: cell-based
Scedosporium apiospermum = assay: Expected efficacy of antifungal agents; assay type: cell-based
Fusarium species = assay: Expected efficacy of antifungal agents; assay type: cell-based
Aspergillus niger = assay: Expected efficacy of antifungal agents; assay type: cell-based
Aspergillus fumigatus = assay: Expected efficacy of antifungal agents; assay type: cell-based
Candida species = assay: Expected efficacy of antifungal agents; assay type: cell-based
Blastomyces dermatitidis = assay: Expected efficacy of antifungal agents; assay type: cell-based
Histoplasma duboisii = assay type: cell-based; conditions: expected efficacy
Trichophyton rubrum = assay: Expected efficacy of antifungal agents; assay type: cell-based
Sporothrix schenckii = assay: Expected efficacy of antifungal agents; assay type: cell-based
Coccidioides immitis = assay type: cell-based; conditions: expected efficacy
[1] = test system: Paracoccidioides brasiliensis; assay: Expected efficacy of antifungal agents; assay type: cell-based
[2] = test system: Trichophyton mentagrophytes; assay: Expected efficacy of antifungal agents; assay type: cell-based
Cryptococcus neoformans = assay: Expected efficacy of antifungal agents; assay type: cell-based
Leishmania infantum = assay: Expected efficacy of antifungal agents; assay type: cell-based
Histoplasma capsulatum = assay type: cell-based; conditions: expected efficacy
Leishmania donovani = assay: Expected efficacy of antifungal agents; assay type: cell-based
Enterobacter cloacae = assay: Expected efficacy of antibiotic agents; assay type: cell-based; conditions: Gram: neg
[3] = test system: Klebsiella (Calymmatobacterium) granulomatis; assay: Expected efficacy of antibiotic agents; assay type: cell-based; conditions: Gram: neg
Enterobacter sakazakii = assay: Expected efficacy of antibiotic agents; assay type: cell-based; conditions: Gram: neg
Acinetobacter baumannii = assay: Expected efficacy of antibiotic agents; assay type: cell-based; conditions: Gram: neg
Bartonella bacilliformis = assay: Expected efficacy of antibiotic agents; assay type: cell-based; conditions: Gram: neg
Providencia rettgeri = assay: Expected efficacy of antibiotic agents; assay type: cell-based; conditions: Gram: neg
Clostridium perfringens = assay type: cell-based; conditions: expected efficacy; Gram: anaer
Moraxella catarrhalis = assay: Expected efficacy of antibiotic agents; assay type: cell-based; conditions: Gram: neg
[4] = test system: gram-positive staphylococci and streptococci; conditions: general description, no test given; cited from earlier work
Corynebacterium jeikeium = assay: Expected efficacy of antibiotic agents; assay type: cell-based; conditions: Gram: pos
Shigella flexneri = assay: Expected efficacy of antibiotic agents; assay type: cell-based; conditions: Gram: neg
Serratia marcescens = assay: Expected efficacy of antibiotic agents; assay type: cell-based; conditions: Gram: neg
[5] = test system: Methicillin resistant staph aureus (MRSA); assay: Expected efficacy of antibiotic agents; assay type: cell-based; conditions: Gram: pos
Legionella pneumophila = assay type: cell-based; conditions: expected efficacy; Gram: neg
Salmonella typhi = assay: Expected efficacy of antibiotic agents; assay type: cell-based; conditions: Gram: neg
Shigella boydii = assay: Expected efficacy of antibiotic agents; assay type: cell-based; conditions: Gram: neg
Rickettsiae = assay type: cell-based; conditions: expected efficacy; Gram: neg
Proteus mirabilis = assay: Expected efficacy of antibiotic agents; assay type: cell-based; conditions: Gram: neg
Klebsiella pneumoniae = assay: Expected efficacy of antibiotic agents; assay type: cell-based; conditions: Gram: neg
Yersinia pestis = assay type: cell-based; conditions: expected efficacy; Gram: neg
Shigella dysenteriae = assay: Expected efficacy of antibiotic agents; assay type: cell-based; conditions: Gram: neg
Campylobacter jejuni = assay: Expected efficacy of antibiotic agents; assay type: cell-based; conditions: Gram: neg
Proteus vulgaris = assay: Expected efficacy of antibiotic agents; assay type: cell-based; conditions: Gram: neg
Neisseria meningitidis = assay: Expected efficacy of antibiotic agents; assay type: cell-based; conditions: Gram: neg
Haemophilus ducreyi = assay: Expected efficacy of antibiotic agents; assay type: cell-based; conditions: Gram: neg
Pseudomonas aeruginosa = assay: Expected efficacy of antibiotic agents; assay type: cell-based; conditions: Gram: neg
[6] = test system: Acinetobacter calcoaceticus; assay: Expected efficacy of antibiotic agents; assay type: cell-based; conditions: Gram: neg
Escherichia coli = assay: Expected efficacy of antibiotic agents; assay type: cell-based; conditions: Gram: neg
Morganella morganii = assay: Expected efficacy of antibiotic agents; assay type: cell-based; conditions: Gram: neg
Haemophilus influenzae = assay: Expected efficacy of antibiotic agents; assay type: cell-based; conditions: Gram: neg
[7] = test system: Staphylococcus aureus (MSSA); assay: Expected efficacy of antibiotic agents; assay type: cell-based; conditions: Gram: pos
[8] = test system: Corynebacterium urealyticum; assay: Expected efficacy of antibiotic agents; assay type: cell-based; conditions: Gram: pos
Shigella sonnei = assay: Expected efficacy of antibiotic agents; assay type: cell-based; conditions: Gram: neg
Citrobacter diversus = assay: Expected efficacy of antibiotic agents; assay type: cell-based; conditions: Gram: neg
Brucella species = assay type: cell-based; conditions: expected efficacy; Gram: neg
Klebsiella oxytoca = assay: Expected efficacy of antibiotic agents; assay type: cell-based; conditions: Gram: neg
Francisella tularensis = assay type: cell-based; conditions: expected efficacy; Gram: neg
Acinetobacter lwoffii = assay: Expected efficacy of antibiotic agents; assay type: cell-based; conditions: Gram: neg
Providencia stuartii = assay: Expected efficacy of antibiotic agents; assay type: cell-based; conditions: Gram: neg
Vibrio cholerae = assay: Expected efficacy of antibiotic agents; assay type: cell-based; conditions: Gram: neg
Enterobacter aerogenes = assay: Expected efficacy of antibiotic agents; assay type: cell-based; conditions: Gram: neg
Citrobacter freundii = assay: Expected efficacy of antibiotic agents; assay type: cell-based; conditions: Gram: neg
Pseudomonas fluorescens = assay: Expected efficacy of antibiotic agents; assay type: cell-based; conditions: Gram: neg
Streptococcus pyogenes = assay: Expected efficacy of antibiotic agents; assay type: cell-based; conditions: Gram: pos
Neisseria gonorrhoeae = assay: Expected efficacy of antibiotic agents; assay type: cell-based; conditions: Gram: neg
Bordetella pertussis = assay: Expected efficacy of antibiotic agents; assay type: cell-based; conditions: Gram: neg

For `C[C@@H](c1ncncc1F)[C@](O)(Cn1cncn1)c1ccc(F)cc1F` [Voriconazole], the “efficacy against Aspergillus terreus” value (Aspergillus terreus) was “yes”, the “efficacy against Aspergillus flavus” value (Aspergillus flavus) was “yes” and the “efficacy against Scedosporium apiospermum” value (Scedosporium apiospermum) was “yes”. The “efficacy against Fusarium species” value (Fusarium species) was “yes”, the “efficacy against Aspergillus niger” value (Aspergillus niger) was “yes” and the “efficacy against Aspergillus fumigatus” value (Aspergillus fumigatus) was “yes”. The “efficacy against Candida species” value (Candida species) was “yes”.
For Itraconazole, the “efficacy against Blastomyces dermatitidis” value (Blastomyces dermatitidis) was “yes”, the “efficacy against Histoplasma duboisii” value (Histoplasma duboisii) was “yes” and the “efficacy against Trichophyton rubrum” value (Trichophyton rubrum) was “yes”. For the same molecule, the “efficacy against Aspergillus flavus” value (Aspergillus flavus) was “yes”, the “efficacy against Sporothrix schenckii” value (Sporothrix schenckii) was “yes” and the “efficacy against Coccidioides immitis” value (Coccidioides immitis) was “yes”. For the same molecule, the “efficacy against Paracoccidioides brasiliensis” value [1] was “yes”, the “efficacy against Trichophyton mentagrophytes” value [2] was “yes” and the “efficacy against Aspergillus fumigatus” value (Aspergillus fumigatus) was “yes”. The “efficacy against Candida species” value (Candida species) was “yes” and the “efficacy against Cryptococcus neoformans” value (Cryptococcus neoformans) was “yes”.
For `C[C@@H]1[C@H](O)[C@@H](C)/C=C/C=C/C=C/C=C/C=C/C=C/C=C/[C@H](O[C@@H]2O[C@H](C)[C@@H](O)[C@H](N)[C@@H]2O)C[C@@H]2O[C@](O)(C[C@@H](O)C[C@@H](O)[C@H](O)CC[C@@H](O)C[C@@H](O)CC(=O)O[C@H]1C)C[C@H](O)[C@H]2C(=O)O` [Amphotericin], the “efficacy against Blastomyces dermatitidis” value (Blastomyces dermatitidis) was “yes”, the “efficacy against Leishmania infantum” value (Leishmania infantum) was “yes” and the “efficacy against Aspergillus terreus” value (Aspergillus terreus) was “yes”. The “efficacy against Aspergillus flavus” value (Aspergillus flavus) was “yes”, the “efficacy against Aspergillus niger” value (Aspergillus niger) was “yes” and the “efficacy against Coccidioides immitis” value (Coccidioides immitis) was “yes”. The “efficacy against Paracoccidioides brasiliensis” value [1] was “yes”, the “efficacy against Histoplasma capsulatum” value (Histoplasma capsulatum) was “yes” and the “efficacy against Leishmania donovani” value (Leishmania donovani) was “yes”. The “efficacy against Aspergillus fumigatus” value (Aspergillus fumigatus) was “yes”, the “efficacy against Candida species” value (Candida species) was “yes” and the “efficacy against Cryptococcus neoformans” value (Cryptococcus neoformans) was “yes”.
With `C/C(=C\C(=O)OCCCCCCCCC(=O)O)C[C@@H]1OC[C@H](C[C@@H]2O[C@H]2[C@@H](C)[C@H](C)O)[C@@H](O)[C@H]1O` [Bactroban, Mupirocin] the “efficacy against Enterobacter cloacae” value (Enterobacter cloacae) was “no”, the “efficacy against Klebsiella (Calymmatobacterium) granulomatis” value [3] was “no” and the “efficacy against Enterobacter sakazakii” value (Enterobacter sakazakii) was “no”. The “efficacy against Acinetobacter baumannii” value (Acinetobacter baumannii) was “no”, the “efficacy against Bartonella bacilliformis” value (Bartonella bacilliformis) was “no” and the “efficacy against Providencia rettgeri” value (Providencia rettgeri) was “no”. For the same molecule, the “efficacy against Clostridium perfringens” value (Clostridium perfringens) was “no”, the “efficacy against Moraxella catarrhalis” value (Moraxella catarrhalis) was “no” and the “activity against gram-positive staphylococci and streptococci” value [4] was “excellent activity”. For the same molecule, the “efficacy against Corynebacterium jeikeium” value (Corynebacterium jeikeium) was “no”, the “efficacy against Shigella flexneri” value (Shigella flexneri) was “no” and the “efficacy against Serratia marcescens” value (Serratia marcescens) was “no”. For the same molecule, the “efficacy against Methicillin resistant staph aureus (MRSA)” value [5] was “yes”, the “efficacy against Legionella pneumophila” value (Legionella pneumophila) was “no” and the “efficacy against Salmonella typhi” value (Salmonella typhi) was “no”. For the same molecule, the “efficacy against Shigella boydii” value (Shigella boydii) was “no”, the “efficacy against Rickettsiae” value (Rickettsiae) was “no” and the “efficacy against Proteus mirabilis” value (Proteus mirabilis) was “no”. For the same molecule, the “efficacy against Klebsiella pneumoniae” value (Klebsiella pneumoniae) was “no”, the “efficacy against Yersinia pestis” value (Yersinia pestis) was “no” and the “efficacy against Shigella dysenteriae” value (Shigella dysenteriae) was “no”. The “efficacy against Campylobacter jejuni” value (Campylobacter jejuni) was “no”, the “efficacy against Proteus vulgaris” value (Proteus vulgaris) was “no” and the “efficacy against Neisseria meningitidis” value (Neisseria meningitidis) was “no”. The “efficacy against Haemophilus ducreyi” value (Haemophilus ducreyi) was “no”, the “efficacy against Pseudomonas aeruginosa” value (Pseudomonas aeruginosa) was “no” and the “efficacy against Acinetobacter calcoaceticus” value [6] was “no”. The “efficacy against Escherichia coli” value (Escherichia coli) was “no”, the “efficacy against Morganella morganii” value (Morganella morganii) was “no” and the “efficacy against Haemophilus influenzae” value (Haemophilus influenzae) was “no”. The “efficacy against Staphylococcus aureus (MSSA)” value [7] was “yes”, the “efficacy against Corynebacterium urealyticum” value [8] was “no” and the “efficacy against Shigella sonnei” value (Shigella sonnei) was “no”. For the same molecule, the “efficacy against Citrobacter diversus” value (Citrobacter diversus) was “no”, the “efficacy against Brucella species” value (Brucella species) was “no” and the “efficacy against Klebsiella oxytoca” value (Klebsiella oxytoca) was “no”. For the same molecule, the “efficacy against Francisella tularensis” value (Francisella tularensis) was “no”, the “efficacy against Acinetobacter lwoffii” value (Acinetobacter lwoffii) was “no” and the “efficacy against Providencia stuartii” value (Providencia stuartii) was “no”. The “efficacy against Vibrio cholerae” value (Vibrio cholerae) was “no”, the “efficacy against Enterobacter aerogenes” value (Enterobacter aerogenes) was “no” and the “efficacy against Citrobacter freundii” value (Citrobacter freundii) was “no”. For the same molecule, the “efficacy against Pseudomonas fluorescens” value (Pseudomonas fluorescens) was “no”, the “efficacy against Streptococcus pyogenes” value (Streptococcus pyogenes) was “yes” and the “efficacy against Neisseria gonorrhoeae” value (Neisseria gonorrhoeae) was “no”. The “efficacy against Bordetella pertussis” value (Bordetella pertussis) was “no”.

From patent publication US9707229B2, “Compositions and methods for treating an infection” (CMPD LICENSING, LLC, priority 2015, dated 2017)
